From patent US11040028B2, “Penicinotam derivative, preparation method and use thereof” (OCEAN UNIVERSITY OF CHINA, priority 2017, dated 2021)

Key:
Format in all cases: cell-based
[1] = system: human dermal fibroblasts CCC-ESF-1; assay: Anti-fibrosis activity test: inhibition of proliferation of human dermal fibroblasts CCC-ESF-1 (CCK-8); details: Fibroblast
Procedure, shortened: (§1)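 Cells were seeded at 2×10^4 cells/mL and allowed to adhere for 24 h at 37° C, 5% CO2, then exposed to graded compound concentrations in triplicate for 48 h. CCK-8 was added for 2 h, A450 was read, and IC50 was derived from inhibition rate = (1−Ai/Ao)×100%.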

[2] = system: human hepatic stellate cells LX-2; assay: Anti-fibrosis activity test: inhibition of proliferation of human hepatic stellate cells LX-2 (CCK-8); details: Homo sapiens, 48 h
Procedure, shortened: as §1

[3] = system: human lung fibroblasts HFL1; assay: Anti-fibrosis activity test: inhibition of proliferation of human lung fibroblasts HFL1 (CCK-8); details: Homo sapiens, HFL1, 48 h
Procedure, shortened: as §1

[4] = system: BHK-21 cells; assay: Anti-fibrosis activity test: inhibition of BHK-21 cell proliferation (CCK-8); details: Mesocricetus auratus, BHK-21, 48 h
Procedure, shortened: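 BHK-21 cells seeded at 2×10^4 cells/mL, allowed to adhere 24 h at 37° C, 5% CO2, then exposed to compounds at graded concentrations in triplicate for 48 h. CCK-8 added for 2 h and absorbance read at 450 nm; inhibition rate taken as (1−Ai/Ao)×100% and IC50 fitted.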

[5] = system: mouse macrophages (RAW264.7); assay: Lipopolysaccharide-induced NO secretion in macrophages (Griess); details: Mus musculus, RAW264.7, 24 h, RAW264.7, LPS 1 μg/ml, a/b isomers given as first/second symbol, read-out: IC50 (μM), inhibition of lipopolysaccharide-induced NO secretion in macrophages
Procedure, shortened: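 RAW264.7 cells in DMEM with 10% FBS were treated with test compounds at several concentrations, then stimulated with LPS (1 μg/ml) for 24 hours. Nitrite in the supernatant was measured by Griess reaction at 548 nm, and percent inhibition was calculated against blank-medium controls.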

[6] = system: cardiac fibroblast RAT-iCell-C002; assay: Anti-fibrosis activity test: inhibition of proliferation of cardiac fibroblast RAT-iCell-C002 (CCK-8); details: Cardiac fibroblast, 48 h
Procedure, shortened: as §1

[7] = system: human fibrosarcoma cells HT-1080; assay: Anti-fibrosis activity test: inhibition of proliferation of human fibrosarcoma cells HT-1080 (CCK-8); details: Homo sapiens, HT-1080, 48 h
Procedure, shortened: as §1

[8] = system: human embryonic lung fibroblast IMR-90; assay: Anti-fibrosis activity test: inhibition of proliferation of human embryonic lung fibroblast IMR-90 (CCK-8)
Procedure, shortened: as §1

[9] = human dermal fibroblasts CCC-ESF-1, CCK-8, 48 hours
[10] = human hepatic stellate cells LX-2, CCK-8, 48 hours
[11] = human lung fibroblasts HFL1, CCK-8, 48 hours
[12] = CCK-8, 48 hours after administration
[13] = cardiac fibroblast RAT-iCell-C002, CCK-8, 48 hours
[14] = human fibrosarcoma cells HT-1080, CCK-8, 48 hours
[15] = human embryonic lung fibroblast IMR-90, CCK-8, 48 hours

SMILES	IC50 [1, 9]	IC50 [2, 10]	IC50 [3, 11]	IC50 [4, 12]	IC50 [5]	IC50 [6, 13]	IC50 [7, 14]	IC50 [8, 15]	IC50 ([1]; Homo sapiens, CCC-ESF-1 cells, 48 h, CCK-8)	IC50 ([2]; LX-2, 48 h, LX-2 cells, CCK-8)	IC50 ([3]; HFL1 cells, 48 h, CCK-8)	IC50 ([4]; 48 h, CCK-8)	IC50 ([6]; RAT-iCell-C002 cells, CCK-8)	IC50 ([7]; HT-1080 cells, 48 h, CCK-8)	IC50 ([8]; Homo sapiens, IMR-90 cells, 48 h, CCK-8)
O=C1c2c(n(Cc3ccccc3F)c3cc(Cl)ccc3c2=O)-c2cccn21 [Compound 504a, 6-Chloro-4-(2-fluorobenzyl)-9H-pyrrolizino[1,2-b]quinoline-9,10(4H)-dione]	0.05 to 5 mM	0.05 to 5 mM	0.05 to 5 mM	< 0.05 mM	1 to 10 µM	0.05 to 5 mM	0.05 to 5 mM	0.05 to 5 mM	–	–	–	–	–	–	–
C=CCn1c2c(c(=O)c3cc(F)ccc31)C(=O)n1cccc1-2 [Compound 109a, 4-Allyl-7-fluoro-9H-pyrrolizino[1,2-b]quinoline-9,10(4H)-dione]	0.05 to 5 mM	0.05 to 5 mM	0.05 to 5 mM	0.05 to 5 mM	0.1 to 1 µM	0.05 to 5 mM	0.05 to 5 mM	< 0.05 mM	–	–	–	–	–	–	–
O=C1c2c(nc3c(Cl)cccc3c2OCc2ccccc2F)-c2cccn21 [Compound 460b, 5-chloro-9-((2-fluorobenzyl)oxy)-10H-pyrrolizino[1,2-b]quinolin-10-one]	0.05 to 5 mM	0.05 to 5 mM	0.05 to 5 mM	0.05 to 5 mM	10 to 50 µM	0.05 to 5 mM	0.05 to 5 mM	0.05 to 5 mM	–	–	–	–	–	–	–
CCn1c2c(c(=O)c3cc(F)c(N4CCNCC4)cc31)C(=O)n1cccc1-2 [Compound 329a, 4-Ethyl-7-fluoro-6-(piperazin-1-yl)-9H-pyrrolizino[1,2-b]quinoline-9,10(4H)-dione]	0.05 to 5 mM	0.05 to 5 mM	0.05 to 5 mM	0.05 to 5 mM	1 to 10 µM	5 to 20 mM	0.05 to 5 mM	0.05 to 5 mM	–	–	–	–	–	–	–
O=C1c2c(n(Cc3cccc(Cl)c3)c3c(Cl)cccc3c2=O)-c2cccn21 [Compound 459a, 5-Chloro-4-(3-chlorobenzyl)-9H-pyrrolizino[1,2-b]quinoline-9,10(4H)-dione]	0.05 to 5 mM	0.05 to 5 mM	0.05 to 5 mM	0.05 to 5 mM	1 to 10 µM	0.05 to 5 mM	5 to 20 mM	0.05 to 5 mM	–	–	–	–	–	–	–
CC(C)n1c2c(c(=O)c3cc(F)ccc31)C(=O)n1cccc1-2 [Compound 108a, 7-Fluoro-4-isopropyl-9H-pyrrolizino[1,2-b]quinoline-9,10(4H)-dione]	0.05 to 5 mM	0.05 to 5 mM	0.05 to 5 mM	0.05 to 5 mM	1 to 10 µM	0.05 to 5 mM	5 to 20 mM	0.05 to 5 mM	–	–	–	–	–	–	–
O=C(Oc1c2c(nc3ccc(F)cc13)-c1cccn1C2=O)c1ccco1 [Compound 150b, 7-fluoro-10-oxo-10H-pyrrolizino[1,2-b]quinolin-9-yl furan-2-carboxylate]	0.05 to 5 mM	< 0.05 mM	0.05 to 5 mM	0.05 to 5 mM	1 to 10 µM	0.05 to 5 mM	0.05 to 5 mM	0.05 to 5 mM	–	–	–	–	–	–	–
Cc1cc2nc3c(c(O)c2cc1C)-c1cccn1C3=O [Compound 781b, 11-hydroxy-8,9-dimethyl-5H-pyrrolizino[2,1-b]quinolin-5-one]	–	–	–	–	1 to 10 µM	–	–	–	0.05 to 5 mM	0.05 to 5 mM	0.05 to 5 mM	0.05 to 5 mM	0.05 to 5 mM	0.05 to 5 mM	0.05 to 5 mM
O=C1c2c([nH]c3cc(N4CCNCC4)c(OC(F)(F)F)cc3c2=O)-c2cccn21 [Compound 409a, 6-(Piperazin-1-yl)-7-(trifluoromethoxy)-9H-pyrrolizino[1,2-b]quinoline-9,10(4H)-dione]	0.05 to 5 mM	0.05 to 5 mM	0.05 to 5 mM	0.05 to 5 mM	1 to 10 µM	0.05 to 5 mM	0.05 to 5 mM	0.05 to 5 mM	–	–	–	–	–	–	–
O=C1c2c(nc3cc(F)ccc3c2OCc2cccc(Cl)c2)-c2cccn21 [Compound 497b, 9-((3-chlorobenzyl)oxy)-6-fluoro-10H-pyrrolizino[1,2-b]quinolin-10-one]	0.05 to 5 mM	0.05 to 5 mM	0.05 to 5 mM	0.05 to 5 mM	1 to 10 µM	0.05 to 5 mM	0.05 to 5 mM	0.05 to 5 mM	–	–	–	–	–	–	–
O=C1c2c(nc3cccc(Cl)c3c2OCc2ccccc2F)-c2cccn21 [Compound 480b, 8-chloro-9-((2-fluorobenzyl)oxy)-10H-pyrrolizino[1,2-b]quinolin-10-one]	0.05 to 5 mM	0.05 to 5 mM	0.05 to 5 mM	0.05 to 5 mM	1 to 10 µM	0.05 to 5 mM	0.05 to 5 mM	0.05 to 5 mM	–	–	–	–	–	–	–
O=C1c2c(nc3c(C(F)(F)F)cccc3c2OCc2cccc(Cl)c2)-c2cccn21 [Compound 455b, 9-((3-chlorobenzyl)oxy)-5-(trifluoromethyl)-10H-pyrrolizino[1,2-b]quinolin-10-one]	0.05 to 5 mM	0.05 to 5 mM	5 to 20 mM	0.05 to 5 mM	1 to 10 µM	0.05 to 5 mM	0.05 to 5 mM	0.05 to 5 mM	–	–	–	–	–	–	–
CC(C)Oc1c2c(nc3ccc(F)cc13)-c1cccn1C2=O [Compound 108b, 7-fluoro-9-isopropoxy-10H-pyrrolizino[1,2-b]quinolin-10-one]	0.05 to 5 mM	0.05 to 5 mM	0.05 to 5 mM	0.05 to 5 mM	1 to 10 µM	0.05 to 5 mM	5 to 20 mM	0.05 to 5 mM	–	–	–	–	–	–	–
O=C1c2c(n(Cc3ccc(Cl)cc3)c3c(C(F)(F)F)cccc3c2=O)-c2cccn21 [Compound 450a, 4-(4-Chlorobenzyl)-5-(trifluoromethyl)-9H-pyrrolizino[1,2-b]quinoline-9,10(4H)-dione]	0.05 to 5 mM	0.05 to 5 mM	0.05 to 5 mM	0.05 to 5 mM	1 to 10 µM	0.05 to 5 mM	5 to 20 mM	0.05 to 5 mM	–	–	–	–	–	–	–
C=CCOc1c2c(nc3ccc(F)cc13)-c1cccn1C2=O [Compound 109b, 9-(allyloxy)-7-fluoro-10H-pyrrolizino[1,2-b]quinolin-10-one]	0.05 to 5 mM	0.05 to 5 mM	0.05 to 5 mM	0.05 to 5 mM	0.1 to 1 µM	0.05 to 5 mM	0.05 to 5 mM	0.05 to 5 mM	–	–	–	–	–	–	–
O=C1c2c(nc3ccc(C(F)(F)F)cc3c2Oc2ccc(F)cc2)-c2cccn21 [Compound 259b, 9-(4-fluorophenoxy)-7-(trifluoromethyl)-10H-pyrrolizino[1,2-b]quinolin-10-one]	5 to 20 mM	0.05 to 5 mM	0.05 to 5 mM	0.05 to 5 mM	1 to 10 µM	0.05 to 5 mM	0.05 to 5 mM	< 0.05 mM	–	–	–	–	–	–	–
CCn1c2c(c(=O)c3cc(F)ccc31)C(=O)n1cccc1-2 [Compound 104a, 4-Ethyl-7-fluoro-9H-pyrrolizino[1,2-b]quinoline-9,10(4H)-dione]	0.05 to 5 mM	0.05 to 5 mM	0.05 to 5 mM	< 0.05 mM	1 to 10 µM	0.05 to 5 mM	0.05 to 5 mM	0.05 to 5 mM	–	–	–	–	–	–	–
O=C1c2c(nc3c(C(F)(F)F)cccc3c2OCc2ccc(Cl)cc2)-c2cccn21 [Compound 450b, 9-((4-chlorobenzyl)oxy)-5-(trifluoromethyl)-10H-pyrrolizino[1,2-b]quinolin-10-one]	0.05 to 5 mM	0.05 to 5 mM	0.05 to 5 mM	0.05 to 5 mM	1 to 10 µM	0.05 to 5 mM	5 to 20 mM	0.05 to 5 mM	–	–	–	–	–	–	–
